# Tested on: human JAK1 (a.a. 837-1142)
# Assay: In vitro JAK kinase assay (HTRF, phosphorylation of biotinylated peptide), JAK1
# Assay type: biochemical
# Details: ratio of IC50 at 1 mM ATP
# Protocol: The catalytic activity of JAK1, JAK2 or JAK3 was assayed by measuring the phosphorylation of a biotinylated peptide. The phosphorylated peptide was detected by homogenous time resolved fluorescence (HTRF). […] Reactions were carried out at room temperature for 1 hour and then stopped with 20 μL 45 mM EDTA, 300 nM SA-APC, 6 nM Eu-Py20 in assay buffer (Perkin Elmer, Boston, Mass.). Binding to the Europium labeled antibody took place for 40 minutes and HTRF signal was measured on a Fusion plate reader (Perkin Elmer, Boston, Mass.).
row,SMILES,JAK2/JAK1
1,"C[C@H](NC(=O)c1cnc(N2CC(CC#N)(n3cc(-c4ccnc5[nH]ccc45)cn3)C2)cn1)C(F)(F)F [Example 35, 5-{3-(Cyanomethyl)-3-[4-(1H-pyrrolo[2,3-b]pyridin-4-yl)-1H-pyrazol-1-yl]azetidin-1-yl}-N-[(1S)-2,2,2-trifluoro-1-methylethyl]pyrazine-2-carboxamide]",A (A means greater than or equal to 10)
2,"N#CCC1(n2cc(-c3ccnc4[nH]ccc34)cn2)CN(c2cnc(C(=O)NCC(F)(F)F)cn2)C1 [Example 36, 5-{3-(Cyanomethyl)-3-[4-(1H-pyrrolo[2,3-b]pyridin-4-yl)-1H-pyrazol-1-yl]azetidin-1-yl}-N-(2,2,2-trifluoroethyl)pyrazine-2-carboxamide]",A (A means greater than or equal to 10)
3,"N#CCC1(n2cc(-c3ncnc4[nH]ccc34)cn2)CN(c2ccc(C(=O)N[C@@H](C3CC3)C(F)(F)F)cc2)C1 [Example 38, 4-{3-(Cyanomethyl)-3-[4-(7H-pyrrolo[2,3-d]pyrimidin-4-yl)-1H-pyrazol-1-yl]azetidin-1-yl}-N-[(1S)-1-cyclopropyl-2,2,2-trifluoroethyl]benzamide]",A (A means greater than or equal to 10)
4,"C[C@@H](NC(=O)c1ccc(N2CC(CC#N)(n3cc(-c4ncnc5[nH]ccc45)cn3)C2)cc1F)C1CC1 [Example 39, 4-{3-(Cyanomethyl)-3-[4-(7H-pyrrolo[2,3-d]pyrimidin-4-yl)-1H-pyrazol-1-yl]azetidin-1-yl}-N-[(1R)-1-cyclopropylethyl]-2-fluorobenzamide]",A (A means greater than or equal to 10)
5,"N#CCC1(n2cc(-c3ccnc4[nH]ccc34)cn2)CN(c2ccc(C(=O)NC3(C(F)(F)F)CC3)nc2)C1 [Example 40, 5-{3-(Cyanomethyl)-3-[4-(1H-pyrrolo[2,3-b]pyridin-4-yl)-1H-pyrazol-1-yl]azetidin-1-yl}-N-[1-(trifluoromethyl)cyclopropyl]pyridine-2-carboxamide]",A (A means greater than or equal to 10)
6,"C[C@H](NC(=O)c1cnc(N2CC(CC#N)(n3cc(-c4ccnc5[nH]ccc45)cn3)C2)cn1)C1CC1 [Example 41, 5-{3-(Cyanomethyl)-3-[4-(1H-pyrrolo[2,3-b]pyridin-4-yl)-1H-pyrazol-1-yl]azetidin-1-yl}-N-[(1S)-1-cyclopropylethyl]pyrazine-2-carboxamide]",A (A means greater than or equal to 10)

# Next, values leading:
row,JAK2/JAK1,SMILES
1,A (A means greater than or equal to 10),"N#CCC1(n2cc(-c3ncnc4[nH]ccc34)cn2)CN(c2cnc(C(=O)N[C@@H](C3CC3)C(F)(F)F)cn2)C1 [Example 32, 5-{3-(Cyanomethyl)-3-[4-(7H-pyrrolo[2,3-d]pyrimidin-4-yl)-1H-pyrazol-1-yl]azetidin-1-yl}-N-[(1S)-1-cyclopropyl-2,2,2-trifluoroethyl]pyrazine-2-carboxamide]"
2,A (A means greater than or equal to 10),"N#CCC1(n2cc(-c3ncnc4[nH]ccc34)cn2)CN(c2cnc(C(=O)NC3(C(F)(F)F)CC3)cn2)C1 [Example 33, 5-{3-(Cyanomethyl)-3-[4-(7H-pyrrolo[2,3-d]pyrimidin-4-yl)-1H-pyrazol-1-yl]azetidin-1-yl}-N-[1-(trifluoromethyl)cyclopropyl]pyrazine-2-carboxamide]"
3,A (A means greater than or equal to 10),"N#CCC1(n2cc(-c3ncnc4[nH]ccc34)cn2)CN(c2cc(F)c(C(=O)NCC(F)F)cc2F)C1 [Example 37, 4-{3-(Cyanomethyl)-3-[4-(7H-pyrrolo[2,3-d]pyrimidin-4-yl)-1H-pyrazol-1-yl]azetidin-1-yl}-N-(2,2-difluoroethyl)-2,5-difluorobenzamide]"
4,A (A means greater than or equal to 10),"N#CCC1(n2cc(-c3ccnc4[nH]ccc34)cn2)CN(c2cnc(C(=O)N[C@@H](C3CC3)C(F)(F)F)cn2)C1 [Example 42, 5-{3-(Cyanomethyl)-3-[4-(1H-pyrrolo[2,3-b]pyridin-4-yl)-1H-pyrazol-1-yl]azetidin-1-yl}-N-[(1S)-1-cyclopropyl-2,2,2-trifluoroethyl]pyrazine-2-carboxamide]"
